Measured values from US10875834B2, “Prodrug and protected forms of 5-hydroxymethylfurfuranal (5-HMF) and its derivatives” (VIRGINIA COMMONWEALTH UNIVERSITY, priority 2016, dated 2020).
“And” between values parts separate entries of the source, which are not always exact repeats. Equal values may be shown once. “Also recorded” adds a separate entry of the source. Read-outs that look alike come from different tables or passages of the source.

Key:
[1] = system: homozygous sickle red blood cells (SS cells); experiment: Antisickling (RBC morphology) study under hypoxia; assay type: cell-based, human
Description: (§1) The twelve compounds, VZHE004, VZHE006, VZHE007, VZHE005, VZHE011, VZHE013, VZHE014, VZHE015, VZHE016, 5-PMFC, 5-CMFC, 5-NMFC, and the parent compound (positive control) 5-HMF were investigated for their abilities to prevent hypoxia-induced RBC sickling (RBC morphology study), increase sickle Hb oxygen affinity (oxygen equilibrium curve; OEC study), and modify sickle Hb (adduct formation study) as previously published (Abdulmalik et al., Br. J Haematol., 2005, 128, 552; Safo et al, J. Med. Chem, 2004, 47, 4665). Briefly, blood suspensions from a subject with homozygous SCD (hematocrit: 20%) were incubated under air in the absence or presence of 1, 2 and 5 mM concentration of test compounds at 37° C. for 1 hr to ensure that binding had attained equilibrium. Following, the suspensions were incubated under hypoxic condition (4% oxygen/96% nitrogen) at 37° C. for 2 hr. Aliquot samples were fixed with 2% glutaraldehyde solution without exposure to air, and then subjected to microscopic morphological analysis. The residual samples were washed in phosphate-buffered saline, and hemolyzed in hypotonic lysis buffer for subsequent analyses.

[2] = molecular target: T1, sickle Hb oxygen affinity (Homo sapiens, UniProt P69905); experiment: Oxygen equilibrium curve (OEC) study, P50 shift of hemolysate from SS cells; assay type: cell-based; conditions: for AP50 (%): 2 mM test compound, hemolysate of SS cells, mean ± SD, three experiments; for P50 shift relative to 5-HMF: 1, 2 and 5 mM
T1 construct: from tissue; host or cells: blood (red cells) of a subject with homozygous sickle cell disease; hemolysate analysed
Description: as §1
(§2) For the OEC study, approximately 100 μl aliquot samples from clarified lysate obtained from the antisickling study were added to 4 ml of 0.1M potassium phosphate buffer, pH 7.0, in a cuvette and subjected to hemoximetry analysis using Hemox™ Analyzer (TCS Scientific Corp.) to assess P50 shifts. Finally, for the Hb adduct formation study, clarified lysates, also from the above antisickling study, were subjected to cation-exchange HPLC (Hitachi D-7000 Series, Hitachi Instruments, Inc., San Jose, Calif.), using a weak cation-exchange column (Poly CAT A: 30 mm×4.6 mm, Poly LC, Inc., Columbia, Md.).

[3] = molecular target: T2, sickle Hb (Hb S) (Homo sapiens, UniProt P69905); experiment: Hb adduct formation study (Hb S modification) with SS cells, cation-exchange HPLC; assay type: cell-based; conditions: for Modified Hb (%): 2 mM test compound, SS cells suspensions (20% hematocrit), mean ± SD, three experiments; for Hb modification relative to 5-HMF: 1, 2 and 5 mM
T2 construct: from tissue; host or cells: blood (red cells) of a subject with homozygous sickle cell disease; hemolysate analysed
Description: as §1, §2

[4] = system: sickle cell disease; conditions: phase I/II human clinical studies; cited from earlier work
[5] = both in-vitro and in-vivo; cited from earlier work
[6] = molecular target: T3, Hb A (Homo sapiens, UniProt P69905); experiment: Time-dependent adduct formation study in normal whole blood; assay type: in vitro ADME; conditions: 2 mM, up to 24 hr
T3 construct: time-dependent studies on Hb adduct formation using normal whole blood; from tissue; host or cells: normal human whole blood (30% hct)
Protocol: The compounds, VZHE004, VZHE006, VZHE007, VZHE005, VZHE011, VZHE013, VZHE014, VZHE015, VZHE016, 5-PMFC, 5-NMFC, and the control 5-HMF were used to conduct time-dependent studies on Hb adduct formation using normal whole blood. The study was performed in a 96-well deepwell (Thermo Scientific) plate, where each compound at 2 mM concentration was added to 600 μL of whole blood (30% hct) and incubated at 37° C. for 24 hr with shaking (at 140 rpm). At 0.5 hr, 1 hr, 2 hr, 4 hr, 6 hr, 8 hr and 24 hr time intervals, 75 μL aliquot of blood was removed from each well using a multichannel pipette and added to respective tubes containing 75 μL of Na cyanoborohydride and borohydride mix (1:1 v/v 50 mM stock) to terminate the Schiff-base reaction, fix the Schiff-base adducts and reduce the reduce free reactive aldehyde (Davies et al., Food Chem. Toxicol. 2009, 47, 1950). We have previously optimized these conditions. After mixing, the tubes were stored immediately at −80° C. until ready for analysis to determine Hb adduct formation using cation-exchange HPLC (Hitachi D-7000 Series, Hitachi Instruments, Inc., San Jose, Calif.).

[7] = molecular target: Hb (Homo sapiens, UniProt P69905); experiment: Incubation of Hb with VZHE004 for three days, UPLC-MS analysis; assay type: in vitro ADME; conditions: incubated with Hb for three days
Description: The overall tetrameric structure is indistinguishable (rmsd ˜0.4 Å) from 1BBB or the R2 structure in complex with 5-HMF (PDB code 1QXE). Like 5-HMF we also observed a pair of VZHE004 molecules covalently bound to the N-terminal αVal1 amines (Schiff-base interaction) in a symmetry-related fashion at the α-cleft (FIG. 7). The electron density of VZHE004 was relatively weak especially at the methyl acetate position. As such, the compound was refined as 5-HMF at the α1Val1 site, while the full VZHE004 was modelled at the α2Val1 binding site but with the methyl acetate refined in two alternate conformations (FIG. 7a). However, to make sure that the disorder is not due to partial hydrolytic cleavage of the ester, Hb and VZHE004 were incubated for three days.

[8] = Homo sapiens, Erythrocyte, 2 mM test compound, SS cells 20% hematocrit, hypoxia 4% oxygen/96% nitrogen, mean ± SD, read-out: Inhibition of Sickling (%)
[9] = Homo sapiens, Erythrocyte, 2 mM, read-out: RBC sickling inhibition
[10] = Homo sapiens, Erythrocyte, 5 mM, read-out: RBC sickling inhibition
[11] = 2 mM test compound, SS cells 20% hematocrit, hypoxia 4% oxygen/96% nitrogen, mean ± SD

T1 sequence (P69905 2-142 limits assumed): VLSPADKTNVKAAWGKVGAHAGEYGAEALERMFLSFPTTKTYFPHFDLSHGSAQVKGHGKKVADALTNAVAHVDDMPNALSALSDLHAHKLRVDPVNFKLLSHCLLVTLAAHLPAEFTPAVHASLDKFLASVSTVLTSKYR
T2 sequence (P69905 2-142 limits assumed): as above
T3 sequence (P69905 2-142 limits assumed): as above
T3 sequence (P68871 2-147 partner limits assumed): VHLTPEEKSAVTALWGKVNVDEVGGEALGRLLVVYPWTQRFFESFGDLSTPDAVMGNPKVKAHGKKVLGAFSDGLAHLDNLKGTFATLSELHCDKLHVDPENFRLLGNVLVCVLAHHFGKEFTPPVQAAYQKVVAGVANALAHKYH
Chain of Hb (P69905 2-142 limits assumed): as the sequence (P69905 2-142 limits assumed) above
Chain of Hb (P68871 2-147 partner limits assumed): as the sequence (P68871 2-147 partner limits assumed) above

Row | SMILES | inhibition at 2000 µM [1, 8] [%] | inhibition at 2000 µM [1, 9] [%] | antisickling effect ([1]; over 1, 2 and 5 mM) | AP50 (%) [2] [%] | P50 shift relative to 5-HMF [2] | Modified Hb (%) [3] [%] | inhibition at 5000 µM [1, 10] [%] | also measured
1 | O=Cc1ccc(COc2ccc(Cl)cc2)o1 [Compound 5-CMFC, 5-((4-chlorophenoxy)methyl)-2-furan carbaldehyde] | 2 ± 1.9 | < 10 | barely showed any antisickling activity; also recorded: poor antisickling effects | 13.2 ± 5.2 | significantly less P50 shift than 5-HMF; also recorded: lower degrees of shift than 5-HMF | 26.7 ± 6.5 |  | antisickling effect ([1]; 5 mM): barely showed any antisickling effect
2 | O=Cc1ccc(CO)o1 [Compound 5-HMF, 5-hydroxymethyl-2-furfural, reference compound] | 25.7 ± 4.4 | 26 |  | 33.4 ± 0.9 |  | 32.8 ± 1.6 |  | RBC sickling inhibition ([1]; 2 mM): ~23% and ~26%; effective dose [4]: 2-4 gm; half-life in plasma [5]: 1 to 1.5 h
3 | O=Cc1ccc(COc2ccccc2[N+](=O)[O-])o1 [Compound 5-NMFC, 5-((2-nitrophenoxy)methyl)-2-furan carbaldehyde] | 10.3 ± 0.5 | < 10 | barely showed any antisickling activity; also recorded: poor antisickling effects | 13.4 ± 5.7 | significantly less P50 shift than 5-HMF; also recorded: lower degrees of shift than 5-HMF | 40.5 ± 17.6 | < 10 | antisickling effect ([1]; 5 mM): barely showed any antisickling effect; metabolic profile / decline of Hb adduct in whole blood [6]: exhibit some resistance to metabolism; Hb modification relative to 5-HMF [3]: superior Hb modification
4 | O=Cc1ccc(COc2ccccc2)o1 [Compound 5-PMFC, 5-(phenoxymethyl)-2-furan carbaldehyde] | 94.7 ± 0.1 |  |  | 45.4 ± 14.6 | better P50 sift than 5-HMF | 60.53 ± 5.3 |  | RBC sickling inhibition ([1]; 2 mM): ~95%; antisickling effect ([1]; 2 mM): attained maximum effect; inhibition at 1000 µM ([1]; Homo sapiens, Erythrocyte, 1 mM, read-out: RBC sickling inhibition): ~17%; metabolic profile / decline of Hb adduct in whole blood [6]: exhibit some resistance to metabolism; Hb modification relative to 5-HMF [3]: superior Hb modification
5 | CC(=O)OCc1ccc(C=O)o1 [VZHE004, (5-formylfuran-2-yl)methyl acetate] | 26.3 ± 4.4 |  |  | 44.6 ± 11.9 |  | 43.5 ± 8.4 | 60 | RBC sickling inhibition ([1]; 5 mM): ~60%; stability of the ester against hydrolytic cleavage (UPLC-MS) [7]: intact
6 | CC(C)(C)OC(=O)OCc1ccc(C=O)o1 [VZHE006, tert-Butyl ((5-formylfuran-2-yl)methyl) carbonate] | 71.6 ± 0.1 | 35 to 95 |  | 44.8 ± 12.9 |  | 50.0 ± 3.0 | > 95 | 
7 | O=Cc1ccc(COC(=O)c2ccccc2)o1 [VZHE007, (5-Formylfuran-2-yl)methyl Benzoate] | 10 ± 5.9 |  | poor antisickling effects | 38.9 ± 11.9 |  | 44.5 ± 6.0 | ~83 | 
8 | CCOCc1ccc(C=O)o1 [VZHE011, 5-(Ethoxymethyl)-2-furan Carboxadehyde] | 58.8 ± 7 | 35 to 95 |  | 39.8 ± 0.8 |  | 40.4 ± 3.9 |  | antisickling effect ([1]; 2 mM): superior
9 | CC(C)(C)OCc1ccc(C=O)o1 [VZHE013, 5-(tert-Butoxymethyl)furan-2-carbaldehyde] | 7.4 ± 6.9 |  | very little antisickling activity; also recorded: barely showed any antisickling activity; also recorded: poor antisickling effects | 24.0 ± 5.6 | weaker | 15.7 ± 4.3 |  | sickling inhibition (antisickling effect) ([1]; at all three concentrations (1, 2 and 5 mM)): less than 5%; % P50 shift ([2]; 1 mM): 16%; % P50 shift ([2]; 2 mM): 24%; % P50 shift ([2]; 5 mM): 46%; Hb modification relative to 5-HMF [3]: weaker adduct formation
10 | COP(=O)(OC)OCc1ccc(C=O)o1 [VZHE014, (5-Formylfuran-2-yl)methyl Dimethyl Phosphate] |  |  | poor antisickling effects | 35.7 ± 8.1 |  | 19.7 ± 6.3 |  | Inhibition of Sickling (%) [1, 11]: 8.4 ± 5.9%; RBC sickling inhibition ([1]; 5 mM): 43% and ~40%
11 | CCCOCc1ccc(C=O)o1 [VZHE015, 5-(Propoxymethyl)-2-furan Carboxadehyde] | 62.9 ± 6.2 | 35 to 95 |  | 44.0 ± 9.7 |  | 39.7 ± 8.2 |  | antisickling effect ([1]; 2 mM): superior
12 | CC(C)OCc1ccc(C=O)o1 [VZHE016, 5-(isopropoxymethyl)-2-furan Carboxadehyde] |  |  |  | 38.4 ± 10.4 |  | 36.4 ± 9.7 |  | RBC sickling inhibition ([1]; 2 mM): ~16%; Inhibition of Sickling (%) [1, 11]: 22.5 ± 8.8%
